Test results published in ChEMBL document CHEMBL4196075, “Structure-based optimization of a series of selective BET inhibitors containing aniline or indoline groups” (Eur J Med Chem, 2018).

Assays:
Type in all cases: ADME, organism-based
Conditions in all cases: in vivo
[1] = Tmax in ICR (CD-1) mouse at 20 mg/kg, po via gavage by mass spectrometric method
[2] = AUC (0 to t) in ICR (CD-1) mouse at 20 mg/kg, po via gavage by mass spectrometric method
[3] = Cmax in ICR (CD-1) mouse at 20 mg/kg, po via gavage by mass spectrometric method; set-up: dose 20 mg/kg, route oral
[4] = Tmax in ICR (CD-1) mouse at […], po via gavage by mass spectrometric method
[5] = Cmax in ICR (CD-1) mouse at […], po via gavage by mass spectrometric method
[6] = AUC (0 to t) in ICR (CD-1) mouse at […], po via gavage by mass spectrometric method

SMILES | Tmax [1] | AUC(0-t) [2] | Cmax [3] | Tmax [4] | Cmax [5] | AUC(0-t) [6]
Cc1ccc2c(c1)CCN2C(=O)c1ccc2c(c1)N(C1CC1)C(C)C(=O)N2C (centres undefined) | 15 min | 189 ng·h/mL | 335 ng/mL | – | – | –
Cc1ccc(NC(=O)c2ccc3c(c2)N(C2CC2)C(C)C(=O)N3C)c(C)c1 (centres undefined) | 18 min | 2660 ng·h/mL | 1780 ng/mL | – | – | –
Cc1ccc2c(c1)CCN2C(=O)c1ccc2c(n1)N(C1CC1)C(C)C(=O)N2C (centres undefined) | – | – | – | 19.8 min | 189 ng/mL | 383 ng·h/mL
